US5532263A, “Benzothiopyranoindazole antitumor agents” (priority 1995, dated 1996)
Where a name gives a salt, the structure may show the parent alone. Read-outs that look alike come from different tables or passages of the source.

Tests used:
[1] = tested as an antitumor agent (literature); cited from earlier work
[2] = Murine antitumor activity versus Pancreatic Ductal Adenocarcinoma #03; assay type: in vivo; conditions: mouse, in vivo, iv; administered intravenously, total dose; mice, Panc 03 study; read-out: MTD (maximum tolerated total dose)
Excerpt: (§1) Murine Antitumor Activaty Versus Pancreatic Ductal Adenocarcinoma #03.
(§2) This is tumor growth inhibition, where T is the medium tumor burden in the treatment group times 100 at evaluation and C is the medium tumor burden in the control group at evaluation.
(§3) This is the maximum tolerated total dose administered intravenously in mg/kg.
(§4) This means the long term cures, the number of mice in the treatment group with no palpable tumor evidents after a minimum of 86 days/total number in treatment group. […]

[3] = system: Pancreatic Ductal Adenocarcinoma #03 (Panc 03); test: as above; assay type: in vivo; conditions: versus Panc 03; for LTC (long term cures): mice with no palpable tumor after a minimum of 86 days/total number in treatment group; for % T/C (tumor growth inhibition): intravenous, T/C <42% considered significant
Excerpt: as §1, §2, §3, §4

calf thymus DNA = test: DNA intercalation: ethidium bromide displacement assay; assay type: binding; conditions: displacement of 50% of calf thymus DNA bound ethidium bromide; average of two determinations
Excerpt: A known ethidium bromide displacement assay is used to determine intercalation potency.

HeLa cell topo II = HeLa cell topo II (Homo sapiens, UniProt P11388); test: Topoisomerase II inhibition: promotion of covalent complex formation between pBR322 DNA and topo II (SDS/K+ precipitation); assay type: biochemical; conditions: read-out: topo II inhib EC50
[4] = system: P388 mouse leukemia cells; test: In vitro cytotoxicity: clonogenic survival in soft agar; assay type: cell-based; conditions: read-out: in vitro cytox IC50
Description: In Vitro Cytotoxicity This is measured by quantifying clonogenic survival in soft agar following a 1 hour transient exposure of P388 mouse leukemia cells to drug.

[5] = DNA precipitated equivalent to 50% of the maximum precipitated by m-AMSA
[6] = P388, 1 hour transient exposure, 50% reduction of clonogenic survival in soft agar
[7] = footnote j: first dose administered 4 days after tumor implantation
[8] = footnote k: bell-shaped dose response curve noted when determining the EC50, relative to 50% of m-AMSA maximum

Sequence of HeLa cell topo II (P11388 whole entry): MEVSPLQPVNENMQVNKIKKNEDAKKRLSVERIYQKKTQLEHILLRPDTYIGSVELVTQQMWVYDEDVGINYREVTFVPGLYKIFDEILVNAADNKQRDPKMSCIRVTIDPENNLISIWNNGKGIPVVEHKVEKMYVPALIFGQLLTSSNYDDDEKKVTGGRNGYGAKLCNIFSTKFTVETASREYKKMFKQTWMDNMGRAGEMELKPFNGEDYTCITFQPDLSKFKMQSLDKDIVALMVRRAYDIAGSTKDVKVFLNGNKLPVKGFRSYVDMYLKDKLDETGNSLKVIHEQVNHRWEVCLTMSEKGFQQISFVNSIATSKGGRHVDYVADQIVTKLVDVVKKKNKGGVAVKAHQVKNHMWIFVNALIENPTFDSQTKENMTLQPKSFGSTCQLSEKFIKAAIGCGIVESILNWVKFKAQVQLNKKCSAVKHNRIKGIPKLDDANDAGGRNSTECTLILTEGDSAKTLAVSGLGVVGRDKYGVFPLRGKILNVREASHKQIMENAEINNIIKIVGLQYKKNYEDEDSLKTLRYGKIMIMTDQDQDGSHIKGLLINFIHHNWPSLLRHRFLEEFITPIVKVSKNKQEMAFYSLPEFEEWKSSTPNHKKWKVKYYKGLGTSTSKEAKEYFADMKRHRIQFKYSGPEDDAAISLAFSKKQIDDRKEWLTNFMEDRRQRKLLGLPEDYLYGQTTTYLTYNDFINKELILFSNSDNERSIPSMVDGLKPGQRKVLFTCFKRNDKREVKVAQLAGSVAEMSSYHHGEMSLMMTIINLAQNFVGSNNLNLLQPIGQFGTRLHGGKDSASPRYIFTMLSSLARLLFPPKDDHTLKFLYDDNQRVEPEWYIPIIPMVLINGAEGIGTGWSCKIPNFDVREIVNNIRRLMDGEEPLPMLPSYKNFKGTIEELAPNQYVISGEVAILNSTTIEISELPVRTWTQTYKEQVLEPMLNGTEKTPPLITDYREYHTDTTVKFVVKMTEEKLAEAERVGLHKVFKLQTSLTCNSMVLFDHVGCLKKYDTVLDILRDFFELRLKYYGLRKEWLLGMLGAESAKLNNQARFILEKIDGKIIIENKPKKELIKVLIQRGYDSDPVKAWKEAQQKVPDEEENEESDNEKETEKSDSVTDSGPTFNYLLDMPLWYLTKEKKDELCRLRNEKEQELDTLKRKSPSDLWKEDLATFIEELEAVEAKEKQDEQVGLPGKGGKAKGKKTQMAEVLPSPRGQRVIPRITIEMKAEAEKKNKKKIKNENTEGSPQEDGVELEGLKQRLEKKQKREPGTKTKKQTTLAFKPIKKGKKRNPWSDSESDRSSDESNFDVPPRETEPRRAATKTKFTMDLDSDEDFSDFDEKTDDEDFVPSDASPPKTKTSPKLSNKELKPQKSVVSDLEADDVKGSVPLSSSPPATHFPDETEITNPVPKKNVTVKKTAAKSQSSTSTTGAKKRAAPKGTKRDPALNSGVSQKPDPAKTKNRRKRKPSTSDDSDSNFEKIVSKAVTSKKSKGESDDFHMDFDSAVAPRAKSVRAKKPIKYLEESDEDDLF

SMILES	antitumor activity [1]	MTD [2] [mg/kg]	LTC (long term cures) [3]	% T/C (tumor growth inhibition) [3] [%]	EC50 (calf thymus DNA) [nM]	EC50 (HeLa cell topo II; [5]) [nM]	IC50 [4, 6] [nM]	% T/C (tumor growth inhibition) [3, 7] [%]	EC50 (HeLa cell topo II; [8]) [nM]	IC50 ([4]; P388, 1 h) [nM]
Cc1ccc2[nH]nc3c2c1Sc1ccccc1-3 [5-methyl-2H-[1]benzothiopyrano[4,3,2-cd]indazole]	inactive									
CCN(CC)CCn1nc2c3c(c(CNC=O)ccc31)Sc1ccccc1-2 [Ex 5]		81	0/5	0	1500	> 260000	330			
CCN(CC)CCn1nc2c3c(c(CNC=O)ccc31)Sc1ccc(OC)cc1-2 [Ex 6]		231	3/5	0	1900	> 240000	55000			
CCN(CC)CCn1nc2c3c(c(CN)ccc31)Sc1ccccc1-2 [Ex 8]		72	0/5		120	> 250000	5800	25		
CCN(CC)CCn1nc2c3c(c(CN)ccc31)Sc1ccc(OC)cc1-2 [Ex 9]		240	3/4		130	> 260000	13000	0		
CCN(CC)CCn1nc2c3c(c(CNC)ccc31)Sc1ccccc1-2 [Ex 10, N-methyl-2-[(2-(Diethylamino)ethyl]-2H-[1]-benzothiopyrano[4,3,2-cd]indazole-5-methanaminedihydrochloride hydrate]		326	1/5	0	180	> 220000	16000			
CCN(CC)CCn1nc2c3c(c(CNS(C)(=O)=O)ccc31)Sc1ccccc1-2 [Ex 11, N-[[2-[2-(Diethylamino)ethyl]-2H-[1]-benzothiopyrano[4,3,2-cd]indazol-5-yl]methyl]methanesulfonamide]		72	0/5	0	1800	> 230000	500			
CCN(CC)CCn1nc2c3c(c(CNS(C)(=O)=O)ccc31)Sc1ccc(OC)cc1-2 [Ex 12]		208	3/5	0	1600	> 210000	30000			
CCN(CC)CCn1nc2c3c(c(CNC(=O)OC)ccc31)Sc1ccccc1-2 [Ex 13, Methyl N-[[2-[(2-diethylamino)ethyl]-2H-[1]-benzothiopyrano(4,3,2-cd)indazol-5-yl]methyl) carbamate]		78	3/5	0	2600	> 240000	500			
CCN(CC)CCn1nc2c3c(c(CNC(=O)OC)ccc31)Sc1ccc(OC)cc1-2 [Ex 14]		170	4/4		790	> 220000	45000	0		
CCN(CC)CCn1nc2c3c(c(CNS(C)(=O)=O)ccc31)Sc1ccc(O)cc1-2 [Ex 15]		31	0/5		2400		4.4	0	550	
CCN(CC)CCn1nc2c3c(c(CNC(=O)OC)ccc31)Sc1ccc(O)cc1-2 [Ex 16]		18	0/5		1500		11	13	330	
CCN(CC)CCNc1ccc(CN(C)S(C)(=O)=O)c2sc3ccccc3c(=O)c12 [WIN33377, reference compound]		124	3/5	0	18000		301		3000	
COc1cc(NS(C)(=O)=O)ccc1Nc1c2ccccc2nc2ccccc12 [mAMSA, reference compound]		48	0/5	0	11000					151
